Species on record: Rattus norvegicus
Test: Open TG-GATES - Regimen: Single
Assay type: toxicity, organism-based, Sprague-Dawley
Parameters: regimen Single, gender Male, age 6 weeks
Conditions: in vivo, iv, 1000 mg/kg, route intravenous injection, dose level Middle; for APTT / Bas / Eos / Fbg / Hb / Ht / Lym / MCH / MCHC / MCV / Mono / PT / Plat / RBC / Ret / WBC: tissue Blood; for KIDNEY_L / KIDNEY_R / KIDNEY_TOTAL: tissue Kidney; for LIVER: tissue Liver; for ALP / ALT / AST / BUN / CRE / Ca / Cl / DBIL / GLC / IP / K / LDH / Na / PL / RALB / TBIL / TC / TG / TP / gamma-GTP: tissue Plasma

For CC(=O)OCC1=C(C(=O)O)N2C(=O)[C@@H](NC(=O)Cc3cccs3)[C@H]2SC1 [CEPHALOTHIN], the TERMINAL_BW (3 h) was 212.6 g, the APTT (3 h) was 22.3 s and the Bas (3 h) was 0%. For the same compound, the Eos (3 h) was 0.4%, the Fbg (3 h) was 266.6 mg/dL and the Hb (3 h) was 13.2 g/dL. It also gave a Ht (3 h) of 38.5%, a Lym (3 h) of 72% and an MCH (3 h) of 21.3 pg. It also gave an MCHC (3 h) of 34.3%, an MCV (3 h) of 62 fL and a Mono (3 h) of 3.2%. For the same compound, the PT (3 h) was 16.3 s, the Plat (3 h) was 116.5 x10_4/uL and the RBC (3 h) was 622 x10_4/ul. It also gave a Ret (3 h) of 5.8%, a WBC (3 h) of 76.3 x10_2/uL and a KIDNEY_L (3 h) of 0.9 g. For the same compound, the KIDNEY_R (3 h) was 0.9 g, the KIDNEY_TOTAL (3 h) was 1.9 g and the LIVER (3 h) was 10 g. The ALP (3 h) was 1462.8 IU/L, the ALT (3 h) was 52.4 IU/L and the AST (3 h) was 101 IU/L. It also gave a BUN (3 h) of 12.6 mg/dL, a CRE (3 h) of 0.2 mg/dL and a Ca (3 h) of 10.8 mg/dL. It also gave a Cl (3 h) of 105.2 meq/L, a DBIL (3 h) of 0 mg/dL and a GLC (3 h) of 173 mg/dL. For the same compound, the IP (3 h) was 8.5 mg/dL, the K (3 h) was 4.3 meq/L and the LDH (3 h) was 207.6 IU/L. It also gave a Na (3 h) of 141.8 meq/L, a PL (3 h) of 141.2 mg/dL and an RALB (3 h) of 2.9 g/dL. For the same compound, the TBIL (3 h) was 0.02 mg/dL, the TC (3 h) was 68.8 mg/dL and the TG (3 h) was 132.8 mg/dL. It also gave a TP (3 h) of 5.2 g/dL, a gamma-GTP (3 h) of 1.2 IU/L and a TERMINAL_BW (6 h) of 218.3 g. For the same compound, the APTT (6 h) was 24.1 s, the Bas (6 h) was 0% and the Eos (6 h) was 1%. For the same compound, the Fbg (6 h) was 281.6 mg/dL, the Hb (6 h) was 13.1 g/dL and the Ht (6 h) was 38.6%. It also gave a Lym (6 h) of 76.4%, an MCH (6 h) of 21.1 pg and an MCHC (6 h) of 34%. It also gave an MCV (6 h) of 62.1 fL, a Mono (6 h) of 2.4% and a PT (6 h) of 16.2 s. It also gave a Plat (6 h) of 135.7 x10_4/uL, an RBC (6 h) of 622 x10_4/ul and a Ret (6 h) of 6.3%. It also gave a WBC (6 h) of 78.7 x10_2/uL, a KIDNEY_L (6 h) of 1 g and a KIDNEY_R (6 h) of 1 g. It also gave a KIDNEY_TOTAL (6 h) of 1.9 g, an LIVER (6 h) of 9.4 g and an ALP (6 h) of 1381.4 IU/L. The ALT (6 h) was 39.2 IU/L, the AST (6 h) was 91.4 IU/L and the BUN (6 h) was 12.8 mg/dL. For the same compound, the CRE (6 h) was 0.2 mg/dL, the Ca (6 h) was 10.5 mg/dL and the Cl (6 h) was 106.2 meq/L. For the same compound, the DBIL (6 h) was 0.002 mg/dL, the GLC (6 h) was 175.4 mg/dL and the IP (6 h) was 8.9 mg/dL. The K (6 h) was 4.5 meq/L, the LDH (6 h) was 176 IU/L and the Na (6 h) was 141.4 meq/L. For the same compound, the PL (6 h) was 127.8 mg/dL, the RALB (6 h) was 2.8 g/dL and the TBIL (6 h) was 0.018 mg/dL. The TC (6 h) was 61.6 mg/dL, the TG (6 h) was 115.2 mg/dL and the TP (6 h) was 5.2 g/dL. It also gave a gamma-GTP (6 h) of 1.2 IU/L, a TERMINAL_BW (9 h) of 213.7 g and an APTT (9 h) of 22.5 s. For the same compound, the Bas (9 h) was 0%, the Eos (9 h) was 1% and the Fbg (9 h) was 293.2 mg/dL. For the same compound, the Hb (9 h) was 13 g/dL, the Ht (9 h) was 38.2% and the Lym (9 h) was 73.4%. The MCH (9 h) was 20.9 pg, the MCHC (9 h) was 34% and the MCV (9 h) was 61.6 fL. For the same compound, the Mono (9 h) was 2.2%, the PT (9 h) was 16.1 s and the Plat (9 h) was 128.3 x10_4/uL. For the same compound, the RBC (9 h) was 620.4 x10_4/ul, the Ret (9 h) was 6.8% and the WBC (9 h) was 74.6 x10_2/uL. The KIDNEY_L (9 h) was 1 g, the KIDNEY_R (9 h) was 1 g and the KIDNEY_TOTAL (9 h) was 1.9 g. The LIVER (9 h) was 8.9 g, the ALP (9 h) was 1218.6 IU/L and the ALT (9 h) was 33.2 IU/L. For the same compound, the AST (9 h) was 75.4 IU/L, the BUN (9 h) was 11 mg/dL and the CRE (9 h) was 0.2 mg/dL. The Ca (9 h) was 10.5 mg/dL, the Cl (9 h) was 107.2 meq/L and the DBIL (9 h) was 0 mg/dL. For the same compound, the GLC (9 h) was 176.6 mg/dL, the IP (9 h) was 9.1 mg/dL and the K (9 h) was 4.5 meq/L. For the same compound, the LDH (9 h) was 150 IU/L, the Na (9 h) was 141.6 meq/L and the PL (9 h) was 138.8 mg/dL. It also gave an RALB (9 h) of 2.9 g/dL, a TBIL (9 h) of 0.018 mg/dL and a TC (9 h) of 72 mg/dL. For the same compound, the TG (9 h) was 90.2 mg/dL, the TP (9 h) was 5.4 g/dL and the gamma-GTP (9 h) was 1.6 IU/L. It also gave a TERMINAL_BW (24 h) of 219.2 g, an APTT (24 h) of 22.5 s and a Bas (24 h) of 0%. The Eos (24 h) was 1%, the Fbg (24 h) was 309.8 mg/dL and the Hb (24 h) was 13.5 g/dL. The Ht (24 h) was 39.4%, the Lym (24 h) was 81.4% and the MCH (24 h) was 20.7 pg. It also gave an MCHC (24 h) of 34.3%, an MCV (24 h) of 60.5 fL and a Mono (24 h) of 2.4%. It also gave a PT (24 h) of 16.3 s, a Plat (24 h) of 124.3 x10_4/uL and an RBC (24 h) of 651.8 x10_4/ul. The Ret (24 h) was 5.1%, the WBC (24 h) was 73.5 x10_2/uL and the KIDNEY_L (24 h) was 1 g. For the same compound, the KIDNEY_R (24 h) was 1 g, the KIDNEY_TOTAL (24 h) was 1.9 g and the LIVER (24 h) was 9.5 g. The ALP (24 h) was 1371.4 IU/L, the ALT (24 h) was 48 IU/L and the AST (24 h) was 76.8 IU/L. It also gave a BUN (24 h) of 15.8 mg/dL, a CRE (24 h) of 0.2 mg/dL and a Ca (24 h) of 10.6 mg/dL. The Cl (24 h) was 106.8 meq/L, the DBIL (24 h) was 0 mg/dL and the GLC (24 h) was 190.8 mg/dL. It also gave an IP (24 h) of 6.7 mg/dL, a K (24 h) of 4.2 meq/L and an LDH (24 h) of 146.8 IU/L. It also gave a Na (24 h) of 143 meq/L, a PL (24 h) of 148.8 mg/dL and an RALB (24 h) of 3.1 g/dL. The TBIL (24 h) was 0.012 mg/dL, the TC (24 h) was 80.6 mg/dL and the TG (24 h) was 79.4 mg/dL. For the same compound, the TP (24 h) was 5.7 g/dL and the gamma-GTP (24 h) was 1.6 IU/L.

From ChEMBL document CHEMBL3885861, “Open TG-GATES”
